Assay type in all cases: cell-based, human
The subject of test [1] is A549 cells (Kras G12S mutation). Put plainly: Cell proliferation inhibition experiment, 3D model, CellTiter-Glo (A549). Particulars: A549, 3D sphere plate, 5 days, 2% FBS. Here is the method: (§1) NCI-H358 was a human non-small cell lung cancer cell line with Kras G12C mutation, cultured in 10% FBS RPMI-1640 medium; A549 was a human lung adenocarcinoma cell line with Kras G12S mutation, cultured in 10% FBS F-12K medium. The cells in the logarithmic growth phase was taken, digested with trypsin EDTA, collected and counted, and H358 was adjusted to 1.8E4 cells/ml using 2% FBS RPMI-1640 medium, and A549 was adjusted to 8.9E3 cells/ml using 2% FBS F-12K medium; 800 (45 μl) H358 or 400 (45 μl) A549 cells were seeded in a 384-well sphere plate respectively, cultured overnight to establish a 3D cell model. DMSO was used to prepare 1000× compound 3.16-fold gradient concentration stock solution, and 2% FBS medium was used to dilute 100-fold to 10× compound stock solution. On the second day after cell seeding, 5 μl 10× compound stock solution was added to each cell culture well, the final concentration was 1×, and DMSO content was 0.1%. DMSO was used as the experimental control (control) and 2% FBS medium as the blank control (blank). After the compound and cells were added and cultured for 5 days, 25 μl CellTiter-Glo working solution was added to each well, mixed at 400 rpm and incubated for 30 minutes. After 30 minutes at room temperature, 40 μl of the mixture was transferred to a 384-well plate with a non-transparent white bottom, the luminescence chemiluminescence value was read, and the cells proliferation inhibition rate IR (%)=(RLU control-RLU compound)/(RLU control-RLU blank)×100% was calculated, Prism 6 four-parameter method was used to fit the compound's gradient dilution concentration and the corresponding cell proliferation inhibition rate, and the IC50 value was calculate.
On the technique in general: In ATP-based viability assays light output follows the ATP content of the culture.

For test [2], the system named is MIA PaCa-2 cells (Kras G12C mutation). Put plainly: Cell proliferation inhibition experiment, 3D model, CellTiter-Glo (MIA PaCa-2). Particulars: MIA PaCa-2, 3D sphere plate, 5 days, read-out: MIA-PaCa2 IC50. Here is the method: MIA PaCa2 was a human pancreatic cancer cell line with Kras G12C mutation, cultured in 10% FBS+2.5% Horse serum DMEM medium; A549 was a human lung adenocarcinoma cell line with Kras G12S mutation, cultured in 10% FBS F-12K medium. The cells in the logarithmic growth phase were taken, digested with enzyme EDTA, collected, counted and 200 MIA PaCa-2 or 400 A549 cells were seeded in a 384-well sphere plate respectively, cultured overnight to establish a 3D cell model. DMSO was used to prepare 1000× compound 3.16-fold gradient concentration stock solution, and medium was used to dilute 100-fold to 10× compound stock solution. On the second day after cell seeding, 10× compound stock solution was added to each cell culture well, the final concentration was 1×, and DMSO content was 0.1%. DMSO was used as an experimental control (control), medium as the blank control (blank). After the compound and cells were added and cultured for 5 days, 30 μl CellTiter-Glo working solution was added to each well, mixed and incubated for 30 minutes. After 30 minutes at room temperature, 40 μl of the mixture was transferred to a 384-well plate with a non-transparent white bottom, the luminescence chemiluminescence value was read, and the cells proliferation inhibition rate IR (%)=(RLU control-RLU compound)/(RLU control-RLU blank)×100% was calculated, XLFit four-parameter method was used to fit the compound's gradient dilution concentration and the corresponding cell proliferation inhibition rate, and the IC50 value was calculate.

Test [3] concerns NCI-H358 cells (Kras G12C mutation). Put plainly: Cell proliferation inhibition experiment, 3D model, CellTiter-Glo (NCI-H358). Particulars: NCI-H358, 3D sphere plate, 5 days, 2% FBS. Here is the method: as §1
Setting [4] is: Homo sapiens, MIA PaCa-2, 120 h.

Like-named read-outs stand apart in the source and are kept apart here. A value given as a limit tells only on which side of the number the result lay.

As for `C=CC(=O)N1CCN2c3nc(=O)n(-c4c(C)ccnc4C4CC4)c4nc(-c5ccccc5F)c(Cl)c(c34)OC[C@H]2C1` (single isomer, unassigned) [Compound Z102-1], the IC50 was determined as 13300 nM in test [1] (Homo sapiens, A549, 120 h); 4 nM in test [2]; 4 nM in test [3].

Take `C=CC(=O)N1CCN2c3nc(=O)n(-c4c(C)ccnc4C4CC4)c4nc(-c5ccccc5F)c(Cl)c(c34)OC[C@H]2C1` (single isomer, unassigned) [Compound Z102-2]: the values for the IC50 in test [1], in test [2] and in test [3] were 12200 nM, 83 nM and 27 nM, respectively.

As to `Cc1ccnc(C(C)C)c1-n1c(=O)nc2c3c(c(Cl)c(-c4ccccc4F)nc31)OC[C@H]1CN(C(=O)/C=C/CN(C)C)CCN21` (single isomer, unassigned) [Compound Z237-2], the IC50 is above 30000 nM in test [1] (Homo sapiens, A549, 120 h); 48 nM in test [2] (setting [4]); 47 nM in test [3] (Homo sapiens, NCI-H358, 120 h).

For the molecule `C=CC(=O)N1CCN2c3nc(=O)n(-c4c(C)ccnc4C(C)C)c4cc(-c5c(O)cccc5F)cc(c34)OC[C@H]2C1` [Compound Z16, (R)-2-acryloyl-10-(2-fluoro-6-hydroxyphenyl)-8-(2-isopropyl-4-methylpyridin-3-yl)-1,2,3,4,13,13a-hexahydropyrazino[2′,1′:3,4][1,4]oxazepine[5,6,7-de]quinazolin-7 (8H)-one], the IC50 is above 10000 nM in test [1] (Homo sapiens, A549, 120 h); 29 nM in test [2] (setting [4]); 41 nM in test [3] (Homo sapiens, NCI-H358, 120 h).

Turning to `C=CC(=O)N1CCN2c3nc(=O)n(C4CC4)c4cc(-c5c(C)ccc6[nH]ncc56)c(Cl)c(c34)OC[C@@H]2C1` [Compound Z17], the IC50 was found to be 22900 nM in test [1] (Homo sapiens, A549, 120 h); 55 nM in test [2] (setting [4]); 63 nM in test [3] (Homo sapiens, NCI-H358, 120 h).

For `C=CC(=O)N1CCN2c3nc(=O)n(-c4ccccc4C(C)C)c4cc(-c5c(C)ccc6[nH]ncc56)c(Cl)c(c34)OC[C@@H]2C1` [Compound Z20], the half-inhibitory concentration (IC50) in test [1] (Homo sapiens, A549, 120 h) worked out at 3760 nM; in test [2] (setting [4]) it was 15 nM; in test [3] (Homo sapiens, NCI-H358, 120 h), 5 nM.

For `C=CC(=O)N1CCN2c3nc(=O)n(-c4c(C)ccnc4C(C)C)c4nc(-c5c(O)cccc5F)c(Cl)c(c34)OC[C@@H]2C1` [Compound Z24, (5 aS)-7-acryloyl-3-chloro-2-(2-fluoro-6-hydroxyphenyl)-12-(2-isopropyl-4-methylpyridin-3-yl)-5,5a,6,7,8,9-hexahydro-4-oxo-1,7,9a,10,12-pentazabenzo[4,5] cyclohepta[1,2,3-de]naphthalen-11 (12H)-one], the half-inhibitory concentration (IC50) in test [1] (Homo sapiens, A549, 120 h) stood at 10400 nM; in test [2] (setting [4]), 9 nM; in test [3], 8 nM.

`C=CC(=O)N1CCN2c3nc(=O)n(-c4c(C)ccnc4C(C)C)c4cc(-c5c(O)cccc5F)c(Cl)c(c34)OC[C@H]2C1` [Compound Z29]: the half-inhibitory concentration (IC50) was determined as 12600 nM in test [1] (Homo sapiens, A549, 120 h); 14 nM in test [2]; 7 nM in test [3].

As for `C=CC(=O)N1CCN2c3nc(=O)n(-c4c(C)ccnc4C(C)C)c4cc(-c5c(O)cccc5F)c(Cl)c(c34)OC[C@@H]2C1` [Compound Z31], the half-inhibitory concentration (IC50) is 12300 nM in test [1] (Homo sapiens, A549, 120 h); 25 nM in test [2] (setting [4]); 47 nM in test [3] (Homo sapiens, NCI-H358, 120 h).

Consider `C=CC(=O)N1CCN2c3nc(=O)n(-c4c(C)ccnc4C(C)C)c4cc(-c5cccnc5N)c(Cl)c(c34)OC[C@H]2C1` [Compound Z41], for which the IC50 in test [1] (Homo sapiens, A549, 120 h) was above 10000 nM; in test [2] (setting [4]), 344 nM; in test [3] (Homo sapiens, NCI-H358, 120 h), 318 nM.

As to `C=CC(=O)N1CCN2c3nc(=O)n(-c4c(C)ccnc4C(C)C)c4nc(-c5ccccc5F)c(Cl)c(c34)OC[C@@H]2C1` [Compound Z46], the 50% inhibitory concentration (IC50) in test [1] (Homo sapiens, A549, 120 h) was above 10000 nM; in test [2] (setting [4]) it was 20 nM; in test [3] (Homo sapiens, NCI-H358, 120 h), 5 nM.

With `C=CC(=O)N1CCN2c3nc(=O)n(-c4c(C)ccnc4C(C)C)c4nc(-c5cccc(F)c5F)c(Cl)c(c34)OC[C@@H]2C1` [Compound Z47], the IC50 in test [1] (Homo sapiens, A549, 120 h) was above 10000 nM; in test [2] it was 9 nM; in test [3], 3 nM.

For `C=CC(=O)N1CCN2c3nc(=O)n(-c4c(C)ccnc4C(C)C)c4nc(-c5c(F)ccc(Cl)c5O)c(Cl)c(c34)OC[C@@H]2C1` [Compound Z52, (5 aS)-7-acryloyl-3-chloro-2-(3-chloro-6-fluoro-2-hydroxyphenyl)-12-(2-isopropyl-4-methylpyridin-3-yl)-5,5a,6,7,8,9-hexahydro-4-oxo-1,7,9a,10,12-pentazabenzo[4,5]cyclohepta[1,2,3-de]naphthalen-11 (12H)-one], the concentration for half-maximal inhibition (IC50) is above 10000 nM in test [1] (Homo sapiens, A549, 120 h); 23 nM in test [2] (setting [4]); 4 nM in test [3] (Homo sapiens, NCI-H358, 120 h).

On to `C=CC(=O)N1CCN2c3nc(=O)n(-c4c(C)ccnc4C(C)C)c4nc(-c5cc(F)ccc5O)c(Cl)c(c34)OC[C@@H]2C1` [Compound Z55], for which the IC50 in test [1] (Homo sapiens, A549, 120 h) is above 10000 nM; in test [2] (setting [4]), 26 nM; in test [3] (Homo sapiens, NCI-H358, 120 h) it was 9 nM.

As to `C=CC(=O)N1CCN2c3nc(=O)n(-c4c(C)ccnc4C(C)C)c4nc(-c5cccc(C(F)(F)F)c5F)c(Cl)c(c34)OC[C@@H]2C1` [Compound Z57], the IC50 in test [1] (Homo sapiens, A549, 120 h) is above 10000 nM; in test [2] (setting [4]) it was 22 nM; in test [3], 5 nM.

In the case of `C=CC(=O)N1CCN2c3nc(=O)n(-c4c(C)ccnc4C(C)C)c4nc(-c5cc(Cl)ccc5F)c(Cl)c(c34)OC[C@@H]2C1` [Compound Z59], the IC50 is above 10000 nM in test [1] (Homo sapiens, A549, 120 h); 26 nM in test [2] (setting [4]); 6 nM in test [3] (Homo sapiens, NCI-H358, 120 h).

For the molecule `C=CC(=O)N1CCN2c3nc(=O)n(-c4c(C)ccnc4C(C)C)c4nc(-c5ccccc5OC(F)(F)F)c(Cl)c(c34)OC[C@@H]2C1` [Compound Z64], the half-inhibitory concentration (IC50) in test [1] (Homo sapiens, A549, 120 h) is above 10000 nM; in test [2] (setting [4]) it was 9 nM; in test [3] (Homo sapiens, NCI-H358, 120 h), 7 nM.

Take `C=CC(=O)N1CCN2c3nc(=O)n(-c4c(C)ccnc4C(C)C)c4nc(-c5c(F)cccc5F)c(Cl)c(c34)OC[C@@H]2C1` [Compound Z68]: the half-maximal inhibitory concentration (IC50) in test [1] (Homo sapiens, A549, 120 h) was above 10000 nM; in test [2] (setting [4]) it was 9 nM; in test [3] (Homo sapiens, NCI-H358, 120 h), 3 nM.

`C=CC(=O)N1CCN2c3nc(=O)n(-c4c(C(C)C)ncnc4C(C)C)c4nc(-c5c(O)cccc5F)c(F)c(c34)OC[C@H]2C1` [Compound Z98]: the half-maximal inhibitory concentration (IC50) is above 10000 nM in test [1] (Homo sapiens, A549, 120 h); 2 nM in test [2] (setting [4]); 1 nM in test [3] (Homo sapiens, NCI-H358, 120 h).

As for `C=CC(=O)N1CCN2c3nc(=O)n(-c4c(C)ncnc4C4CC4)c4nc(-c5c(O)cccc5F)c(Cl)c(c34)OC[C@H]2C1` [Compound Z103], the 50% inhibitory concentration (IC50) in test [1] (Homo sapiens, A549, 120 h) was above 30000 nM; in test [2] (setting [4]) it was 18 nM; in test [3] (Homo sapiens, NCI-H358, 120 h) it was 7 nM.

Turning to `C=CC(=O)N1CCN2c3nc(=O)n(-c4c(C)ncnc4C4CC4)c4nc(-c5cccc(F)c5F)c(Cl)c(c34)OC[C@H]2C1` [Compound Z106], the half-maximal inhibitory concentration (IC50) in test [1] (Homo sapiens, A549, 120 h) was above 30000 nM; in test [2] (setting [4]), 7 nM; in test [3] (Homo sapiens, NCI-H358, 120 h), 4 nM.

What is called IC50 is the concentration at which inhibition is half-maximal.
